Tests used:
[1] = tested on: platinum-sensitive relapsed ovarian cancer and a BRCA1/2 mutation; design: method as in PMID 28754483; details: maintenance treatment, vs placebo; cited from earlier work
[2] = Pharmacokinetics of FOLFIRI components with and without veliparib (relative bioavailability); details: for 90% CIs for the relative bioavailability (Cmax and AUCt): presence (cycle 1 day 15) vs absence (cycle 1 day 1) of veliparib; for Cmax: human, plasma, intravenous, central value
Procedure: Treatment-emergent adverse events (TEAEs) were assessed from the time of study drug administration until 30 days following discontinuation of study drug. TEAEs were assessed according to the National Cancer Institute Common Terminology Criteria for Adverse Events version 4.0. In dose-escalation cohorts, blood samples were collected on day 15 of cycle 1 for veliparib PK, and on days 1 and 15 of cycle 1 for PK assessment of the FOLFIRI components irinotecan, SN-38, folinic acid (leucovorin), and 5-FU. Exploratory efficacy end points included objective response rate (ORR), time to disease progression (TTP), duration of overall response (DOR), and ECOG performance status. Objective response rate included confirmed complete response (CR) and partial response (PR). Objective response rate evaluation was based on Response Evaluation Criteria in Solid Tumours version 1.1. Objective response rate was calculated for all patients with one or more measurable lesions at baseline. Time to disease progression was defined as the number of days from the date the patient started study drug to the date of the patient’s disease progression. Duration of overall response was defined as the number of days from the day criteria were met for CR or PR (whichever was recorded first) to the date that PD was objectively documented. If a patient was still responding, the patient’s data were censored at the date of the last study visit at which a tumour assessment was performed. Analyses of change and/or percentage change from baseline for tumour size were performed for each scheduled post-baseline visit and for the final visit. ECOG performance status was assessed at all visits, with descriptive statistics summarised for each assessment. In addition, a mean change from baseline to each assessment time was summarised.
The sample size was based on clinical justification. No specific statistical hypothesis tests were planned, with descriptive statistics used for the analysis of safety, PK, and tumour response data. The study population for all safety and preliminary efficacy analyses included patients who received one or more doses of study medication. Data from parts 1–3 of the dose-escalation cohort were combined for assessment of the effect of veliparib on the PK of irinotecan, SN-38, and folinic acid. Linear mixed effects models were performed on natural logarithmically transformed maximum plasma concentration (Cmax) and area under the plasma or serum concentration-time curve (AUC) to compare exposure of irinotecan, SN-38, and folinic acid with and without the administration of veliparib. Point estimates and the corresponding 90% confidence intervals (CIs) of the ratio of central values with and without veliparib administration were calculated.

[3] = tested on: patients with advanced solid tumours; details: human, in vivo
From the text: This phase 1 open-label, multicentre, dose-escalation, and safety expansion study evaluated veliparib in combination with bimonthly FOLFIRI in patients with advanced solid tumours. The primary objectives were to determine the maximum tolerated dose (MTD) and establish the recommended phase 2 dose (RP2D) of the combination therapy. Secondary objectives were to assess the safety and tolerability, PK profile, and exploratory efficacy of the combination for each of the FOLFIRI regimens. Patients received veliparib and bimonthly FOLFIRI in 28-day cycles. Veliparib was administered on days 15–19 in cycle 1 and on days 1–5 and 15–19 in subsequent cycles (Fig. 1). Patients with stable disease or better status could continue veliparib and bimonthly FOLFIRI at the investigator’s discretion until progressive disease (PD), unacceptable toxicity, or FOLFIRI discontinuation. The trial was registered with the ClinicalTrials.gov registry (NCT01123876) and was approved by appropriate independent ethics committees/institutional review boards prior to initiation. The study was performed in accordance with the 1964 Declaration of Helsinki and its later amendments. Written informed consent was obtained from all patients before study enrollment.
Dose escalation occurred in three parts to evaluate the MTD/RP2D of three different bimonthly FOLFIRI regimens in combination with veliparib (Fig. 1). A minimum of three patients per dose level were included for dose-toxicity modeling. In part 1, dose escalation began with veliparib twice daily (BID) on days 15–19 of cycle 1 (to allow the determination of single-agent PK for irinotecan, the active metabolite of irinotecan (SN-38), folinic acid, and 5-FU on cycle 1 day 1). In parts 2 and 3, dose escalation began with veliparib BID on day 15 of cycle 1. The differences in the dosing schedules of parts 1, 2, and 3 relate to dosing of irinotecan and 5-FU, and are detailed in Fig. 1. In all parts, veliparib continued to be administered on days 1–5 and 15–19 of each subsequent 28-day cycle. […]

[4] = FOLFIRI + veliparib, cycle 1 day 15

Row | Compound | AUCt, central value, test [2, 4] [ng·h/mL] | Cmax, central value, test [2, 4] [ng/mL] | AUCt, central value, reference ([2]; FOLFIRI alone, cycle 1 day 1) [ng·h/mL] | Cmax, central value, reference ([2]; FOLFIRI alone, cycle 1 day 1) [ng/mL] | 90% CIs for the relative bioavailability (Cmax and AUCt) [2] | also measured
1 | O=C(c1cc(Cc2n[nH]c(=O)c3ccccc23)ccc1F)N1CCN(C(=O)C2CC2)CC1 [olaparib] |  |  |  |  |  | Median PFS [1]: 19.1 months
2 | CCc1c2c(nc3ccc(O)cc13)-c1cc3c(c(=O)n1C2)COC(=O)[C@]3(O)CC [SN-38] | 157.8 | 17.65 | 157.9 | 18.31 | within the pre-established boundaries of 0.80 to 1.25 | 
3 | Nc1nc(=O)c2c([nH]1)NC[C@H](CNc1ccc(C(=O)N[C@@H](CCC(=O)O)C(=O)O)cc1)N2C=O [(S)-Leucovorin, levoleucovorin] | 28470 | 13270 | 29360 | 14220 | within the pre-established boundaries of 0.80 to 1.25 | 
4 | Nc1nc2c(c(=O)[nH]1)N(C=O)[C@H](CNc1ccc(C(=O)N[C@@H](CCC(=O)O)C(=O)O)cc1)CN2 [(R)-Leucovorin, dextroleucovorin] | 172200 | 39860 | 180400 | 41870 | within the pre-established boundaries of 0.80 to 1.25 | 
5 | CCc1c2c(nc3ccc(OC(=O)N4CCC(N5CCCCC5)CC4)cc13)-c1cc3c(c(=O)n1C2)COC(=O)[C@]3(O)CC [Irinotecan, irinotecan] |  |  |  |  | within the pre-established boundaries of 0.80 to 1.25 | AUC0–24, central value, reference ([2]; FOLFIRI alone, cycle 1 day 1): 10620 ng·h/mL; Cmax ([2]; reference, FOLFIRI alone, cycle 1 day 1): 1780 ng/mL; Cmax ([2]; test, FOLFIRI + veliparib, cycle 1 day 15): 1790 ng/mL
6 | O=c1[nH]cc(F)c(=O)[nH]1 [5-FU, 5-fluorouracil] |  |  |  |  |  | Median ratio of 5-FU concentrations, cycle 1 day 15 to cycle 1 day 1 ([2]; 2 h after the start of infusion): 1.03; Median ratio of 5-FU concentrations, cycle 1 day 15 to cycle 1 day 1 ([2]; 24 h after the start of infusion): 0.95; Tolerability of 400 mg/m^2 bolus 5-FU dose [3]: not tolerated
